Measured values: patent US9833497B2, “Human originated EGF domain proteins and use of the same” (CHENGDU SOURCEBIO LIMITED-LIABILITY COMPANY, priority 2013, dated 2017)

How the values were obtained:
Assay type in all cases: cell-based
Serratia marcescens = assay: MIC against Gram-negative bacteria: Serratia marcescens; details: for MIC: S. marcescens
Outline: (§1)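 Bacteria grown in LB at 37° C with shaking to McFarland 0.5, pelleted and resuspended in fresh LB, then seeded at 5×10^5 CFU/mL per well. Purified recombinant human EGF domain proteins were two-fold serially diluted in triplicate and plates shaken at 37° C, 175 rpm. MIC is the lowest protein concentration with no bacterial growth.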

Pseudomonas aeruginosa = assay: MIC against Gram-negative bacteria: Pseudomonas aeruginosa; details: for MIC: P. aeruginosa
Outline: as §1

Proteus mirabilis = assay: MIC against Gram-negative bacteria: Proteus mirabilis; details: for MIC: P. mirabilis
Outline: as §1

E. coli DH5α = assay: Antibacterial activity: MIC and growth curve against E. coli DH5α in 96-well plate; details: minimal inhibitory concentration against E. coli DH5α; 96-well plate, 5×10^5 CFU/mL, 37° C., judged after 8 h
Outline: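 Log-phase DH5α (OD600 about 0.5, 37° C, 185 rpm in LB) was pelleted, resuspended in fresh LB and seeded at 5×10^5 CFU/mL with recombinant protein at 50, 25 and 12.5 μg/mL (two-fold series), in triplicate. Plates were shaken at 175 rpm, 37° C, and OD600 was read every 30 min. MIC was the lowest concentration with no growth.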

E. coli BL21 = assay: MIC against Gram-negative bacteria: E. coli BL21
Outline: as §1

Proteus vulgaris = assay: MIC against Gram-negative bacteria: Proteus vulgaris; details: for MIC: P. vulgaris
Outline: as §1

Enterobacter cloacae = assay: MIC against Gram-negative bacteria: Enterobacter cloacae; details: for MIC: E. cloacae
Outline: as §1

Aeromonas hydrophila = assay: MIC against Gram-negative bacteria: Aeromonas hydrophila; details: for MIC: A. hydrophila
Outline: as §1

Klebsiella pneumonia = assay: MIC against Gram-negative bacteria: Klebsiella pneumonia; details: for MIC: K. pneumonia
Outline: as §1

Moraxella catarrhalis = assay: MIC against Gram-negative bacteria: Moraxella catarrhalis; details: for MIC: M. catarrhalis
Outline: as §1

Citrobacter diversus = assay: MIC against Gram-negative bacteria: Citrobacter diversus; details: for MIC: C. diversus
Outline: as §1

[1] = 10 h cultivation at 37° C., 5×10^5 CFU/mL, two-fold serial dilution
[2] = Serratia marcescens, 96-well plate, 5×10^5 CFU/mL, 37° C., 10 h
[3] = Pseudomonas aeruginosa, 96-well plate, 5×10^5 CFU/mL, 37° C., 10 h
[4] = Proteus mirabilis, 96-well plate, 5×10^5 CFU/mL, 37° C., 10 h
[5] = E. coli BL21, 96-well plate, 5×10^5 CFU/mL, 37° C., 10 h
[6] = Proteus vulgaris, 96-well plate, 5×10^5 CFU/mL, 37° C., 10 h
[7] = Enterobacter cloacae, 96-well plate, 5×10^5 CFU/mL, 37° C., 10 h
[8] = Aeromonas hydrophila, 96-well plate, 5×10^5 CFU/mL, 37° C., 10 h
[9] = Klebsiella pneumonia, 96-well plate, 5×10^5 CFU/mL, 37° C., 10 h
[10] = Moraxella catarrhalis, 96-well plate, 5×10^5 CFU/mL, 37° C., 10 h
[11] = Citrobacter diversus, 96-well plate, 5×10^5 CFU/mL, 37° C., 10 h
[12] = E. coli BL21, 10 h cultivation at 37° C.
[13] = 96-well plate, 5×10^5 CFU/mL, 37° C., 10 h
[14] = Serratia marcescens, 5×10^5 CFU/mL, 10 h cultivation at 37° C.
[15] = Pseudomonas aeruginosa, 5×10^5 CFU/mL, 10 h cultivation at 37° C.
[16] = Proteus mirabilis, 5×10^5 CFU/mL, 10 h cultivation at 37° C.
[17] = E. coli BL21, 5×10^5 CFU/mL, 10 h cultivation at 37° C.
[18] = Proteus vulgaris, 5×10^5 CFU/mL, 10 h cultivation at 37° C.
[19] = Enterobacter cloacae, 5×10^5 CFU/mL, 10 h cultivation at 37° C.
[20] = Aeromonas hydrophila, 5×10^5 CFU/mL, 10 h cultivation at 37° C.
[21] = Klebsiella pneumonia, 5×10^5 CFU/mL, 10 h cultivation at 37° C.
[22] = Moraxella catarrhalis, 5×10^5 CFU/mL, 10 h cultivation at 37° C.
[23] = Citrobacter diversus, 5×10^5 CFU/mL, 10 h cultivation at 37° C.
[24] = 10 h cultivation at 37° C., 5×10^5 CFU/mL

PRT1145 (KINDCTSIPCMNEGFCQKSAHGFTCICPRGYTGAYCE; listed as Homo sapiens)
MIC S. marcescens (Serratia marcescens; [1]): 12.5 µg/mL
MIC P. aeruginosa (Pseudomonas aeruginosa; [1]): 12.5 µg/mL
MIC P. mirabilis (Proteus mirabilis; [1]): 50 µg/mL
MIC (E. coli DH5α): 12.5 µg/mL
MIC E. coli BL21 (E. coli BL21; [1]): 25 µg/mL
MIC P. vulgaris (Proteus vulgaris; [1]): 25 µg/mL
MIC E. cloacae (Enterobacter cloacae; [1]): 12.5 µg/mL
MIC A. hydrophila (Aeromonas hydrophila; [1]): 12.5 µg/mL
MIC K. pneumonia (Klebsiella pneumonia; [1]): 12.5 µg/mL
MIC M. catarrhalis (Moraxella catarrhalis; [1]): 12.5 µg/mL
MIC C. diversus (Citrobacter diversus; [1]): 12.5 µg/mL

PRT1288 (ADGPCHGHKCVHGQCVPLDALSYSCQCQDGYSGALCN; listed as Homo sapiens)
MIC against S. marcescens (Serratia marcescens; [2]): 12.5 µg/mL
MIC against P. aeruginosa (Pseudomonas aeruginosa; [3]): 12.5 µg/mL
MIC against P. mirabilis (Proteus mirabilis; [4]): 12.5 µg/mL
MIC (E. coli DH5α): 50 µg/mL
MIC against E. coli BL21 (E. coli BL21; [5]): 25 µg/mL
MIC against P. vulgaris (Proteus vulgaris; [6]): 25 µg/mL
MIC against E. cloacae (Enterobacter cloacae; [7]): 50 µg/mL
MIC against A. hydrophila (Aeromonas hydrophila; [8]): 12.5 µg/mL
MIC against K. pneumonia (Klebsiella pneumonia; [9]): 25 µg/mL
MIC against M. catarrhalis (Moraxella catarrhalis; [10]): 50 µg/mL
MIC against C. diversus (Citrobacter diversus; [11]): 12.5 µg/mL

PRT990 (LDDACVSNPCHEDAICDTNPVNGRAICTCPPGFTGGACD; listed as Homo sapiens)
MIC (Serratia marcescens; 10 h cultivation at 37° C.): 25 µg/mL
MIC (Pseudomonas aeruginosa; 10 h cultivation at 37° C.): 12.5 µg/mL
MIC (Proteus mirabilis; 10 h cultivation at 37° C.): 25 µg/mL
MIC (E. coli DH5α): 12.5 µg/mL
MIC (E. coli BL21; [12]): 25 µg/mL
MIC (Proteus vulgaris; 10 h cultivation at 37° C.): 12.5 µg/mL
MIC (Enterobacter cloacae; 10 h cultivation at 37° C.): 50 µg/mL
MIC (Aeromonas hydrophila; 10 h cultivation at 37° C.): 12.5 µg/mL
MIC (Klebsiella pneumonia; 10 h cultivation at 37° C.): 12.5 µg/mL
MIC (Moraxella catarrhalis; 10 h cultivation at 37° C.): 50 µg/mL
MIC (Citrobacter diversus; 10 h cultivation at 37° C.): 25 µg/mL

PRT639 (DADECLLFGQEICKNGFCLNTRPGYECYCKQGTYYDPVKLQCF; listed as Homo sapiens)
MIC S. marcescens (Serratia marcescens; [13]): 25 µg/mL
MIC P. aeruginosa (Pseudomonas aeruginosa; [13]): 12.5 µg/mL
MIC P. mirabilis (Proteus mirabilis; [13]): 25 µg/mL
MIC (E. coli DH5α): 12.5 µg/mL
MIC E. coli BL21 (E. coli BL21; [13]): 50 µg/mL
MIC P. vulgaris (Proteus vulgaris; [13]): 50 µg/mL
MIC E. cloacae (Enterobacter cloacae; [13]): 12.5 µg/mL
MIC A. hydrophila (Aeromonas hydrophila; [13]): 50 µg/mL
MIC K. pneumonia (Klebsiella pneumonia; [13]): 50 µg/mL
MIC M. catarrhalis (Moraxella catarrhalis; [13]): 12.5 µg/mL
MIC C. diversus (Citrobacter diversus; [13]): 25 µg/mL

PRT1475 (DINECKDPSNINGGCSQICDNTPGSYHCSCKNGFVMLSNKKDCK; listed as Homo sapiens)
MIC against S. marcescens (Serratia marcescens; [14]): 12.5 µg/mL
MIC against P. aeruginosa (Pseudomonas aeruginosa; [15]): 12.5 µg/mL
MIC against P. mirabilis (Proteus mirabilis; [16]): 25 µg/mL
MIC (E. coli DH5α): 25 µg/mL
MIC against E. coli BL21 (E. coli BL21; [17]): 12.5 µg/mL
MIC against P. vulgaris (Proteus vulgaris; [18]): 12.5 µg/mL
MIC against E. cloacae (Enterobacter cloacae; [19]): 25 µg/mL
MIC against A. hydrophila (Aeromonas hydrophila; [20]): 12.5 µg/mL
MIC against K. pneumonia (Klebsiella pneumonia; [21]): 12.5 µg/mL
MIC against M. catarrhalis (Moraxella catarrhalis; [22]): 12.5 µg/mL
MIC against C. diversus (Citrobacter diversus; [23]): 25 µg/mL

PRT1321 (AIDECELDMRGGCHTDALCSYVGPGQSRCTCKLGFAGDGYQCS; listed as Homo sapiens)
MIC against S. marcescens (Serratia marcescens; [2]): 12.5 µg/mL
MIC against P. aeruginosa (Pseudomonas aeruginosa; [3]): 50 µg/mL
MIC against P. mirabilis (Proteus mirabilis; [4]): 12.5 µg/mL
MIC (E. coli DH5α): 50 µg/mL
MIC against E. coli BL21 (E. coli BL21; [5]): 12.5 µg/mL
MIC against P. vulgaris (Proteus vulgaris; [6]): 100 µg/mL
MIC against E. cloacae (Enterobacter cloacae; [7]): 12.5 µg/mL
MIC against A. hydrophila (Aeromonas hydrophila; [8]): 50 µg/mL
MIC against K. pneumonia (Klebsiella pneumonia; [9]): 25 µg/mL
MIC against M. catarrhalis (Moraxella catarrhalis; [10]): 50 µg/mL
MIC against C. diversus (Citrobacter diversus; [11]): 12.5 µg/mL

PRT443 (DIDECENTDACQHECKNTFGSYQCICPPGYQLTHNGKTCQ; listed as Homo sapiens)
MIC (Serratia marcescens; [24]): 50 µg/mL
MIC (Pseudomonas aeruginosa; [24]): 12.5 µg/mL
MIC (Proteus mirabilis; [24]): 25 µg/mL
MIC (E. coli DH5α): 12.5 µg/mL
MIC (E. coli BL21; E. coli BL21, 10 h cultivation at 37° C., 5×10^5 CFU/mL): 25 µg/mL
MIC (Proteus vulgaris; [24]): 12.5 µg/mL
MIC (Enterobacter cloacae; [24]): 12.5 µg/mL
MIC (Aeromonas hydrophila; [24]): 12.5 µg/mL
MIC (Klebsiella pneumonia; [24]): 12.5 µg/mL
MIC (Moraxella catarrhalis; [24]): 12.5 µg/mL
MIC (Citrobacter diversus; [24]): 25 µg/mL

PRT1412 (RASCPVLCSGNGQYMKGRCLCHSGWKGAECD; listed as Homo sapiens)
MIC against S. marcescens (Serratia marcescens; [14]): 25 µg/mL
MIC against P. aeruginosa (Pseudomonas aeruginosa; [15]): 25 µg/mL
MIC against P. mirabilis (Proteus mirabilis; [16]): 25 µg/mL
MIC (E. coli DH5α): 25 µg/mL
MIC against E. coli BL21 (E. coli BL21; [17]): 50 µg/mL
MIC against P. vulgaris (Proteus vulgaris; [18]): 50 µg/mL
MIC against E. cloacae (Enterobacter cloacae; [19]): 25 µg/mL
MIC against A. hydrophila (Aeromonas hydrophila; [20]): 50 µg/mL
MIC against K. pneumonia (Klebsiella pneumonia; [21]): 12.5 µg/mL
MIC against M. catarrhalis (Moraxella catarrhalis; [22]): 12.5 µg/mL
MIC against C. diversus (Citrobacter diversus; [23]): 25 µg/mL

PRT916 (QADPCASNPCANGGQCLPFEASYICHCPPSFHGPTCR; listed as Homo sapiens)
MIC (Serratia marcescens; 10 h cultivation at 37° C.): 12.5 µg/mL
MIC (Pseudomonas aeruginosa; 10 h cultivation at 37° C.): 50 µg/mL
MIC (Proteus mirabilis; 10 h cultivation at 37° C.): 25 µg/mL
MIC (E. coli DH5α): 25 µg/mL
MIC (E. coli BL21; [12]): 12.5 µg/mL
MIC (Proteus vulgaris; 10 h cultivation at 37° C.): 50 µg/mL
MIC (Enterobacter cloacae; 10 h cultivation at 37° C.): 12.5 µg/mL
MIC (Aeromonas hydrophila; 10 h cultivation at 37° C.): 50 µg/mL
MIC (Klebsiella pneumonia; 10 h cultivation at 37° C.): 25 µg/mL
MIC (Moraxella catarrhalis; 10 h cultivation at 37° C.): 12.5 µg/mL
MIC (Citrobacter diversus; 10 h cultivation at 37° C.): 25 µg/mL

PRT131 (AGHCSTYGHLCRNGGRCREKRRGVTCDCAFSAYDGPFCS; listed as Homo sapiens)
MIC (μg/mL) S. marcescens (Serratia marcescens; [2]): 12.5 µg/mL
MIC (μg/mL) P. aeruginosa (Pseudomonas aeruginosa; [3]): 12.5 µg/mL
MIC (μg/mL) P. mirabilis (Proteus mirabilis; [4]): 100 µg/mL
MIC (E. coli DH5α): 50 µg/mL
MIC (μg/mL) E. coli BL21 (E. coli BL21; [5]): 12.5 µg/mL
MIC (μg/mL) P. vulgaris (Proteus vulgaris; [6]): 25 µg/mL
MIC (μg/mL) E. cloacae (Enterobacter cloacae; [7]): 12.5 µg/mL
MIC (μg/mL) A. hydrophila (Aeromonas hydrophila; [8]): 12.5 µg/mL
MIC (μg/mL) K. pneumonia (Klebsiella pneumonia; [9]): 12.5 µg/mL
MIC (μg/mL) M. catarrhalis (Moraxella catarrhalis; [10]): 25 µg/mL
MIC (μg/mL) C. diversus (Citrobacter diversus; [11]): 12.5 µg/mL
